Results: paper PMC8964227, “IP-Se-06, a Selenylated Imidazo[1,2-a]pyridine, Modulates Intracellular Redox State and Causes Akt/mTOR/HIF-1α and MAPK Signaling Inhibition, Promoting Antiproliferative Effect and Apoptosis in Glioblastoma Cells” (Oxidative Medicine and Cellular Longevity, 2022)

Tests used:
HT-22 cells = test: MTT cytotoxicity assay, HT-22; format: cell-based, mouse; details: 72 h; for IC50: Mus musculus, HT-22, MTT
Experimental: (§1) Cell viability after treatments with selenylated imidazo[1,2-a]pyridines (IP-Se-01–IP-Se-10) was analyzed by quantitative colorimetric assay with MTT, according to Mosmann. IP-01, a prototype molecule without the addition of the selenium in its structure, was also tested. A172 and HT-22 cells were cultured in 96-well plates (10^4 cells/well). After confluence, cells were exposed to selenylated imidazo[1,2-a]pyridines (0.1, 1, 10, 100, and 1000 μM) for up to 72 h. After this phase, cell medium was removed and the cells were washed twice with PBS and incubated with MTT solution (0.5 mg/mL) for 2 h. The insoluble formazan was dissolved by adding DMSO (100 μL/well), and colorimetric determination of MTT reduction was measured at 550 nm in a multireader Infinite M200 Tecan. Three independent experiments were conducted, and the results are presented as IC50 (half maximal inhibitory concentration).

A172 cells [1] = test: MTT cytotoxicity assay, A172; format: cell-based, human; details: for IC50: Homo sapiens, A 172, 72 h, MTT; for Selectivity Index (SI): IC50 in normal cell line (HT-22)/IC50 in A172
Experimental: as §1

[2] = system: thioredoxin reductase (TrxR); test: Thioredoxin reductase activity in A172 cells (DTNB reduction); format: cell-based, human; details: 1 μM, 6 h, vs control
Experimental: (§2) To determine thioredoxin reductase (TrxR) activity and levels of reduced glutathione (GSH), glioblastoma cells were plated (4 × 10^5/well) into 12-well plates. At confluence, the cells were exposed at low concentration to IP-Se-06 (1 μM) for 6 h. After treatment time, cells were washed twice with PBS and resuspended with PBS/Triton 1%, centrifuged at 5000 g for 5 min and the supernatants were used for the determinations. All results were normalized by the protein content using the Bradford method.
TrxR activity was determined in A172 cells according to the method previously described by Arnér and collaborators, measuring the NADPH-dependent DTNB reduction to TNB (5-thio-2-nitrobenzoic acid) promoted by TrxR activity. The content of TNB derived from free thiols was measured at 412 nm. The enzyme activity was expressed as μmol·min^−1·mg protein^−1.

Akt = test: Western blotting Akt, A172 cells; format: cell-based, human; details: 1 μM, 48 h, vs control
Experimental: (§3) After treatment with IP-Se-06 (1 μM) for 48 h, A172 cells were harvested with a lysis buffer. The lysates were collected, and the total proteins present in the lysates were quantified according to Lowry. Proteins present in the cell lysates (30 μg) were subjected to SDS-polyacrylamide gel electrophoresis, followed by electroblotting to polyvinylidene fluoride (PVDF) membranes. Nonspecific binding was blocked by incubating the membrane with skimmed milk in TBS buffer containing 0.1% Tween 20 (TBS-T) for 1 h. After primary antibody incubation, membranes were incubated with appropriate HRP-conjugated secondary antibodies for 1 h at room temperature. Immunodetection was performed using an enhanced chemiluminescence (ECL) detection kit. Protein bands were visualized using ChemiDoc MP Imaging System (Bio-Rad) and quantified by densitometry using the freeware ImageJ by Wayne Rasband from the National Institute of Health (USA).

p38 MAPK = test: Western blotting p38, A172 cells; format: cell-based, human; details: 1 μM, 48 h, vs control
Experimental: as §3

[3] = system: Ehrlich ascitic carcinoma; parameters: method as in PMID 33125183; details: 1 mg/kg, Ehrlich ascitic carcinoma-bearing mice; cited from earlier work
A172 cells [4] = test: Clonogenic assay; format: cell-based, human; details: 1 μM, 72 h
Experimental: To analyze the ability of the organoselenium compound to prevent cell proliferation and the progression of tumorigenesis, the methodology proposed by Franken and collaborators was used. In total, 500 cells per well were seeded in 6-well plates for 24 h. Before treatment with IP-Se-06, two groups were treated with the mitogen-activated protein kinase/ERK kinase inhibitor U0126 (Cell Signaling Technology, USA, Cat. #9903) at 10 μM for 1 h. A172 cells were exposed to IP-Se-06 (1 μM), while untreated cells were maintained as a control. After 72 h of incubation, the cells were washed with PBS, and fresh growth medium DMEM-F12 was added. At 7 days after treatment, colonies were fixed with 10% ethanol, stained with 0.5% crystal violet stain solution, manually counted, and photographed. Finally, cells were discolored with 1 mL of acetic acid 10% for 10 min, and the absorbance was measured at 590 nm in a multireader (Infinite M200 TECAN).

A172 cells [5] = test: Mitochondrial membrane potential (TMRE); format: cell-based, human; details: 1 μM, 6 h, vs control
Experimental: The loss of mitochondrial transmembrane potential was analyzed using the fluorescent probe TMRE according to as proposed by O'Reilly and collaborators, with modifications. A172 cells (4 × 10^5/well) were plated in 12-well plates. After confluence, the cells were treated with IP-Se-06 (1 μM) for 6 h. After treatment, the cells were washed once with HBSS and incubated with TMRE (1 μM) at 37°C for 20 min. Lastly, the cells were washed with HBSS and the fluorescence intensity was measured at excitation peak of 549 nm and emission of 575 nm.

HIF-1α [6] = test: Immunocytochemistry staining for HIF-1α localization; format: cell-based, human; details: 1 μM, 48 h
Experimental: A172 cells were treated with IP-Se-06 (1 μM) for 48 h, fixed with paraformaldehyde (4%) for 15 min and washed three times with PBS. The cells were then treated with blocking solution (0.5% BSA in PBS containing 0.3% of triton X-100) for 1 h at room temperature and incubated with rabbit polyclonal primary antibody HIF-1α (Cat. sc-10790, dilution 1 : 500) overnight at 4°C. Following this, the cells were washed three times with PBS and incubated with secondary antibody polyclonal goat anti-rabbit IgG antibody (Cat. AP132P, dilution 1 : 1000) for 1 h. The cell nuclei were stained with DAPI (3 μg/mL). The cell images were acquired from ten randomly chosen fields for each condition using an Olympus IX83 fluorescent microscope.

ERK 1/2 = test: Western blotting ERK 1/2, A172 cells; format: cell-based, human; details: 1 μM, 48 h
Experimental: as §3

A172 cells [7] = test: Assessment of cell death (acridine orange plus propidium iodide); format: cell-based, human; details: 1 μM, 72 h, vs nontreated
Experimental: The cells were seeded (density of 2 × 10^5/well) into 6-well plates. After confluence, cells were treated with IP-Se-06 (1 μM) for 72 h. After this period, tumor cells were washed with PBS, trypsinized, centrifuged at 1500 g for 5 min, resuspended in PBS, and stained with a solution (6 μL, 1 : 1) of acridine orange (100 μg/mL) plus propidium iodide (100 μg/mL). This staining is used to analyze nuclear changes that characterize apoptotic and necrotic cells according to McGahon and collaborators. Cells (300/glass slide) from triplicates were observed under a fluorescence microscope (Olympus BX41) and categorized as viable, apoptotic, or necrotic.

p53 = test: Western blotting p53, A172 cells; format: cell-based, human; details: 1 μM, vs control
Experimental: as §3

A172 cells [8] = test: Chromatin condensation detection (DAPI); format: cell-based, human; details: 1 μM, 72 h
Experimental: DAPI was used to analyze changes in the nuclear morphology of apoptotic cells after DNA damage. A172 cells (0.5 × 10^4/well) in 24-well plates were treated with IP-Se-06 (1 μM) for 72 h. The cells were then fixed with 4% paraformaldehyde for 10 min at 4°C. The fixed cells were washed three times with PBS (pH 7.4) and stained with DAPI (3 μg/mL) in PBS at 37°C for 10 min. Finally, the cells were washed in PBS, and nuclear morphology was photographed by a fluorescence Olympus IX83 microscope.

NLRP3 = test: Western blotting NLRP3, A172 cells; format: cell-based, human; details: 1 μM, 48 h, vs control
Experimental: as §3

p-p38 = test: Western blotting p-p38, A172 cells; format: cell-based, human; details: 1 μM, 48 h, vs control
Experimental: as §3

γ-H2AX = test: Western blotting γ-H2AX, A172 cells; format: cell-based, human; details: 1 μM, vs control
Experimental: as §3

NRF2 = test: Western blotting NRF2, A172 cells; format: cell-based, human; details: 1 μM, vs control
Experimental: as §3

[9] = system: reduced glutathione (GSH); test: Reduced glutathione level in A172 cells (o-phthalaldehyde); format: cell-based, human; details: 1 μM, 6 h, vs control
Experimental: as §2
GSH was determined according to Hissin and Hilf using the fluorescent probe o-phthalaldehyde, which binds to free -SH groups forming the GS-OPT complex. This complex can be determined by fluorescence excitation at 350 nm and emission at 420 nm. Determinations were expressed in μGSH/μg protein.

caspase-1 = test: Western blotting caspase-1, A172 cells; format: cell-based, human; details: 1 μM, 48 h, vs control
Experimental: as §3

A172 cells [10] = test: Cell cycle analysis (PI, flow cytometry); format: cell-based, human; details: 1 μM, 72 h, vs untreated
Experimental: The PI/RNAse solution from the Immunostep® kit (Salamanca, Spain) was used to determine the DNA content of cells of the different phases of cell cycle by flow cytometry using the protocol proposed by the manufacturer. A172 cells were plated on 6-well plates at a density of 2 × 10^5/well until confluence and synchronization with nocodazole (30 ng/mL) for 14 h. The cells were treated with IP-Se-06 (1 μM) for 72 h, carefully washed with PBS, and fixed in cold ethanol (70%) overnight at -20°C. Finally, cells were washed again, resuspended in PI/RNAse solution, and incubated for 15 min at room temperature. Cells were analyzed using a BD FACSCanto II (BD Biosciences) flow cytometer. Data were processed using Flowing Software 2.5.1.

HIF-1α [11] = test: Western blotting HIF-1α, A172 cells; format: cell-based, human; details: 1 μM, 48 h, vs control
Experimental: as §3

p-Akt = test: Western blotting p-Akt, A172 cells; format: cell-based, human; details: 1 μM, 48 h, vs control
Experimental: as §3

mTOR = test: Western blotting mTOR, A172 cells; format: cell-based, human; details: 1 μM, 48 h, vs control
Experimental: as §3

cytochrome c = test: Western blotting cytochrome c (cytosolic fraction), A172 cells; format: cell-based, human; details: 1 μM, vs control
Experimental: as §3

Bcl-xL = test: Western blotting Bcl-xL, A172 cells; format: cell-based, human; details: 1 μM, vs control
Experimental: as §3

Cc1ccn2c([Se]c3cccc4ccccc34)c(-c3ccccc3)nc2c1 [IP-Se-05]
IC50 (HT-22 cells): 206 µM | IC50 (A172 cells [1]): 20.8 µM | Selectivity Index (SI) (A172 cells [1]): 9.9

COc1ccccc1[Se]c1c(-c2ccccc2)nc2cc(C)ccn12 [IP-Se-06, 3-((2-methoxyphenyl)selanyl)-7-methyl-2-phenylimidazol[1,2-a]pyridine]
TrxR intracellular activity [2]: significantly decreased | levels of Akt (Akt): significant reduction | levels of p38 (p38 MAPK): significantly decreased | angiogenesis [3]: inhibited angiogenesis | tumor growth [3]: growth inhibition of tumor | number of cells in the colonies (absorbance 590 nm) (A172 cells [4]; concomitantly with U0126 10 μM 1 h, vs treatments alone): even lower | number of cells in the colonies (absorbance 590 nm) (A172 cells [4]; vs control): decreased | rate of colony formation (A172 cells [4]; vs nontreated): decreased | ΔΨm, TMRE fluorescence intensity (A172 cells [5]): reduced | HIF-1α localization (HIF-1α [6]): seemed not to be translocated to the nucleus | ERK 1/2 levels (ERK 1/2; combination with U0126 10 μM 1 h, vs nontreated and U0126 alone): synergistic inhibition | ERK 1/2 levels (ERK 1/2; vs control): important reduction | apoptosis (acridine orange plus propidium iodide) (A172 cells [7]): able to induce apoptosis | levels of p53 (p53): increased | nuclear morphology (DAPI) (A172 cells [8]): brightly stained and condensed nuclei | levels of NLRP3 (NLRP3): decreased | cytotoxic activity on the mouse hippocampal cell line (HT-22 cells; in words): no significant cytotoxic activity | IC50 (HT-22 cells): 65 µM | phosphorylation of p38 (p-p38) (p-p38): significantly decreased | levels of γ-H2AX (γ-H2AX): increased | levels of NRF2 protein (NRF2): decreased | approximate IC25 value (A172 cells [1]; A172, concentration used in further experiments): ~1 µM | IC50 (A172 cells [1]): 1.8 µM | Selectivity Index (SI) (A172 cells [1]): 36.5 | levels of GSH [9]: significantly decreased | levels of caspase-1 (caspase-1): decreased | G2/M phase cell population (A172 cells [10]): decrease | S phase (A172 cells [10]): no significant effect | cell population in the G1 phase (A172 cells [10]): increased | cell proportion in sub-G1 peak (A172 cells [10]): increased | HIF-1α levels (HIF-1α [11]): significantly decreased | levels of p-Akt (p-Akt): significant reduction | levels of mTOR (mTOR): significant reduction | levels of cytochrome c (cytochrome c): increased | levels of Bcl-xL (Bcl-xL): decreased

Cc1ccn2c([Se]c3cccs3)c(-c3ccccc3)nc2c1 [IP-Se-07]
IC50 (HT-22 cells): 10.7 µM | IC50 (A172 cells [1]): 27.9 µM | Selectivity Index (SI) (A172 cells [1]): 0.4

CCCC[Se]c1c(-c2ccccc2)nc2cc(C)ccn12 [IP-Se-08]
IC50 (HT-22 cells): 31.2 µM | IC50 (A172 cells [1]): 20.9 µM | Selectivity Index (SI) (A172 cells [1]): 1.5

c1ccc([Se]c2c(-c3ccccc3)nc3ncccn23)cc1 [IP-Se-09]
IC50 (HT-22 cells): 6 µM | IC50 (A172 cells [1]): 21.8 µM | Selectivity Index (SI) (A172 cells [1]): 0.3

COc1ccc(-c2nc3cc(C)ccn3c2[Se]c2ccccc2)cc1 [IP-Se-10]
IC50 (HT-22 cells): 30 µM | IC50 (A172 cells [1]): 18.8 µM | Selectivity Index (SI) (A172 cells [1]): 1.6
